From ChEMBL document CHEMBL5728731, “Alkyl chain modified imidazoquinoline TLR7/8 agonist compounds and uses thereof” (2021)

Key:
Toll-like receptor 7 = molecular target: T1, Toll-like receptor 7 (Homo sapiens, UniProt Q9NYK1); assay: (§1) n Vitro Biological Assays: Plasmacytoid dendritic cell (pDC)—enriched peripheral blood mononuclear cells (PBMCs) were prepared from the blood of a series of human donors (3-5 donors/experiment). PBMCs were isolated using Ficoll-Paque Premium® (GE Healthcare, Chicago Ill.) using methods well known to those in the art. pDCs were magnetically isolated from the total recovered PBMC population using CD304 (BDCA-4/Neuropilin-1) microbeads (Miltenyi Biotec, San Diego Calif.), according to the manufacturer's instructions. Isolated pDCs were then added back to between 1 and 2×108 of the corresponding donor's PBMCs for relative enrichment of this cell type. […] Culture supernatants were collected and interferon-alpha (IFNα) protein levels were measured by ELISA (MabTech, Cincinnati Ohio), according to the manufacturer's instructions.Monocytes were magnetically isolated from PBMCs, prepared as described above, following labeling with CD14 microbeads (Miltenyi Biotec, San Diego Calif.), according to the manufacturer's instructions. […] Culture supernatants were collected and tumor necrosis factor alpha (TNFα) protein levels were measured by ELISA (MabTech, Cincinnati Ohio), according to the manufacturer's instructions.
T1 sequence (Q9NYK1 whole entry): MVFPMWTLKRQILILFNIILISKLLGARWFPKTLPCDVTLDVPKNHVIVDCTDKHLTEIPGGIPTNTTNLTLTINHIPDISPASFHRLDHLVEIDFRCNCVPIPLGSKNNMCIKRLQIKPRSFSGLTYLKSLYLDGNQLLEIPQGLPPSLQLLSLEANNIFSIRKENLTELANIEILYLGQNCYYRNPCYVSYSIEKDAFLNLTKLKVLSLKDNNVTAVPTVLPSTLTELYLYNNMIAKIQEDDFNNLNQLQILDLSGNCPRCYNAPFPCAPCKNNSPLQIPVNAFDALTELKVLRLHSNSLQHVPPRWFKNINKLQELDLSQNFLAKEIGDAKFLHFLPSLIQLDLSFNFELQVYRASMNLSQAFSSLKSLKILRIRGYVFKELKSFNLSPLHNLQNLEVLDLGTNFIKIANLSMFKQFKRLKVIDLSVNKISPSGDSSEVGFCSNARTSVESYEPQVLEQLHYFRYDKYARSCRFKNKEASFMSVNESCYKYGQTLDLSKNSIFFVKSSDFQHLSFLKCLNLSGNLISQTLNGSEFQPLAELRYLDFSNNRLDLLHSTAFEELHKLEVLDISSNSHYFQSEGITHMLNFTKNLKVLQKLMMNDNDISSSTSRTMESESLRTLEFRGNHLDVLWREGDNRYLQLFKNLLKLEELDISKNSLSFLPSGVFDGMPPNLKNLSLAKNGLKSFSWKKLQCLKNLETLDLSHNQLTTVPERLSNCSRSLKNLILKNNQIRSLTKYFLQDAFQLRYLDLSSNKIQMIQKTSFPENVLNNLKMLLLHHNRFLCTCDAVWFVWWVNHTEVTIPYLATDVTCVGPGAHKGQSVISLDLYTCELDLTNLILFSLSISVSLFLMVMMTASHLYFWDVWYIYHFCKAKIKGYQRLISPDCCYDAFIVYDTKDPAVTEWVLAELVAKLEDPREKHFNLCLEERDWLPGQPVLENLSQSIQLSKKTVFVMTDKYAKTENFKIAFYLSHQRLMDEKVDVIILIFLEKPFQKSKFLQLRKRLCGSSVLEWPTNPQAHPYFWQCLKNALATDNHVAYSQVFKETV

Toll-like receptor 8 = molecular target: T2, Toll-like receptor 8 (Homo sapiens, UniProt Q9NR97); assay: as §1
T2 sequence (Q9NR97 whole entry): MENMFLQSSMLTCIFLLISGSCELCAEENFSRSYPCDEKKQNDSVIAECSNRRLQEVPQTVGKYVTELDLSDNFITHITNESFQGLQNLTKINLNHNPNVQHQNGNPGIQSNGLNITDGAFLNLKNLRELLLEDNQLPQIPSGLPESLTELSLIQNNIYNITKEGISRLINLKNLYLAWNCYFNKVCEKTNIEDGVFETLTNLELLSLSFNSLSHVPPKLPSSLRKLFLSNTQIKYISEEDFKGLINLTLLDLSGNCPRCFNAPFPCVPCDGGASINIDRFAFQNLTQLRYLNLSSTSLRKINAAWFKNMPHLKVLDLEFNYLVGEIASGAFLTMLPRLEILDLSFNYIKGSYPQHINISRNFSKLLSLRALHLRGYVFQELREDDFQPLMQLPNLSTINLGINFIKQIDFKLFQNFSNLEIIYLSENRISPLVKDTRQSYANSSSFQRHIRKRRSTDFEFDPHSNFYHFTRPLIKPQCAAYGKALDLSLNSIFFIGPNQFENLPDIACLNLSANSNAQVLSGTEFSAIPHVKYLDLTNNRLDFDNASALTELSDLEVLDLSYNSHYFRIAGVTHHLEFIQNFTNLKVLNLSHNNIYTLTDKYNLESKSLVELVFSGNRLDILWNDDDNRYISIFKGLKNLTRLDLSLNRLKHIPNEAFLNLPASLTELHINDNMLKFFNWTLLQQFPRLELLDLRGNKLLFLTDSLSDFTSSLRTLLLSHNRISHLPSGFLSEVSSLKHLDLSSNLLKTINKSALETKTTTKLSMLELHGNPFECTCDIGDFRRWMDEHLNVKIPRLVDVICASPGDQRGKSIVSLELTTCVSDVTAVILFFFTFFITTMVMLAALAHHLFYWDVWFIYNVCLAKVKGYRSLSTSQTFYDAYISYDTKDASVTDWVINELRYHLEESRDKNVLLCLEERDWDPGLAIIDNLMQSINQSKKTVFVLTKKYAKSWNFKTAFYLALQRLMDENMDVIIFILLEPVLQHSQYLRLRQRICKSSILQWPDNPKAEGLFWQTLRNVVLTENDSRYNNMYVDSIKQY

| Structure (SMILES) | EC50 (Toll-like receptor 7) [nM] | EC50 (Toll-like receptor 8) [nM] |
| --- | --- | --- |
| CCCCCCCCCCCCCCCCCC(=O)NCc1ccc(Cn2c(CCCC)nc3c(N)nc4ccccc4c32)cc1 | 41 | 5720 |
| CCCCCC(=O)NCc1ccc(Cn2c(CCCC)nc3c(N)nc4ccccc4c32)cc1 | 11 | 2140 |
| CCCCCCCCCCCCCCC(=O)NCc1ccc(Cn2c(CCCC)nc3c(N)nc4ccccc4c32)cc1 | 2 | 827 |
